Patent US20040049799A1, “Method for screening agents capable of treating obesity” (priority 2000, published 2004)

System: messenger for the SPARC protein in the adipose tissue
Assay: expression of the messenger for the SPARC protein in adipose tissue after insulin injection
Type: in vivo
Conditions: injected into mice

## insulin
  expression of the messenger for the SPARC protein in the adipose tissue: increases the expression of the messenger for the SPARC protein
